Experimental data from patent publication US20110245288A1 (priority 2010, published 2011).

Key:
[1] = human
[2] = human; remark: listed apart in the source

SMILES | Cumulative permeation [1] [nmol] | Flux [1] [nmol/cm^2/h] | Lag time [1] [h] | Skin Disposition [1] [µmol/g] | Plasma hydrolysis (k) [2] [h⁻¹] | flux enhancement [1] | fold increase in cumulative permeation as compared to BUP [1] [fold]
CO[C@]12CC[C@@]3(C[C@@H]1[C@](C)(O)C(C)(C)C)[C@H]1Cc4ccc(O)c5c4[C@@]3(CCN1CC1CC1)[C@H]2O5 [BUP, buprenorphine, reference compound] | 6.32 ± 2.16 | 0.44 ± 0.14 | 9.2 ± 2.0 | 0.62 ± 0.34 |  |  | 
CCOCCOCCOC(=O)Oc1ccc2c3c1O[C@H]1[C@@]4(OC)CC[C@@]5(C[C@@H]4[C@](C)(O)C(C)(C)C)[C@@H](C2)N(CC2CC2)CC[C@]315 [Formula I, Buprenorphine 3,6-dioxaoctyl carbonate] | 17.5 ± 4.0 | 1.24 ± 0.23 | 7.7 ± 1.7 | 1.0 ± 0.4 | -0.113 | *Formula I (3) (key: *Indicates a flux enhancement greater than 2.) | ≥ 2.75
CCOCCOCCOCCOCCOC(=O)Oc1ccc2c3c1O[C@H]1[C@@]4(OC)CC[C@@]5(C[C@@H]4[C@](C)(O)C(C)(C)C)[C@@H](C2)N(CC2CC2)CC[C@]315 [Formula II, Buprenorphine 3,6,9,12-tetraoxatetradecanyl carbonate] | 4.5 ± 1.9 | 0.31 ± 0.26 | 7.4 ± 4.7 | 4.5 ± 1.9 | -1.12 |  | 
CCOCCOCCOCCOC(=O)Oc1ccc2c3c1O[C@H]1[C@@]4(OC)CC[C@@]5(C[C@@H]4[C@](C)(O)C(C)(C)C)[C@@H](C2)N(CC2CC2)CC[C@]315 [Formula III, Buprenorphine 3,6,9-trioxaundecyl carbonate] | 23.9 ± 6.7 | 1.74 ± 0.45 | 8.7 ± 0.6 | 13.89 ± 12.21 | -0.37 | *FormuIa III (4) (key: *Indicates a flux enhancement greater than 2.) | ≥ 2.75
